According to US11535613B2 (GUANGDONG RAYNOVENT BIOTECH CO., LTD., priority 2018, dated 2022):

Tests used:
[1] = Solid stability test of crystal forms (high temperature, high humidity, light radiation, accelerated conditions; appearance, content, impurities, crystal form by XRPD); format: physicochemical; settings: for change of crystal form (XRPD detection): after the solid stability test conditions; for XPRD: crystal form found
Text: High Performance Liquid Chromatograph (HPLC) The analytic method is as follows: [table] [table] […] The sample was placed under high temperature, high humidity and acceleration conditions. The bottle was sealed with an aluminum foil, and some small holes were pierced on the aluminum foil to ensure that the sample could fully contact with the ambient air. The sample placed under light radiation was placed upright at room temperature and open to the air. The sample was exposed to a light source, and radiated with sufficient energy prior to taking samples for detection. Samples were taken at various time points for analysis, and the detection results were compared with the initial detection results obtained at Day 0. The investigation items include appearance, content and impurities. […] The sample was placed under high temperature, high humidity and acceleration conditions. The bottle was sealed with an aluminum foil, and some small holes were pierced on the aluminum foil to ensure that the sample could fully contact with the ambient air. The sample placed under light radiation was placed upright at room temperature and open to the air. The sample was exposed to a light source, and radiated with sufficient energy prior to taking samples for detection. Samples were taken at various time points for analysis, and the detection results were compared with the initial detection results obtained at Day 0. The investigation items include appearance, content and impurities. […] Samples were taken at various time points, and the test results were compared with the initial test results obtained at Day 0. […] The investigation items include appearance, impurities, and crystal forms.

[2] = test system: Influenza A virus H1N1 (H1N1 A/WSN/33 virus); assay: Influenza A virus H1N1 mouse infection model (in vivo drug efficacy); settings: H1N1 A/WSN/33 infected BALB/c mice, 10 mg/kg oral twice a day Day 1 to Day 7, first dose 36 hr after infection
[3] = test system: Influenza virus A/Weiss/43 (H1N1) strain; assay: Influenza virus cytopathy (CPE) experiment; format: cell-based
[4] = Acceleration test (40° C./relative humidity 75%, open), Day 5
[5] = Acceleration test (40° C./relative humidity 75%, open), Day 10
[6] = High humidity (room temperature/relative humidity 92.5%, open), Day 5
[7] = High humidity (room temperature/relative humidity 92.5%, open), Day 10
[8] = High temperature (60° C., open), Day 5
[9] = High temperature (60° C., open), Day 10
[10] = Light radiation (total illumination 1.2 × 10^6 Lux · hr), Day 5
[11] = Light radiation (total illumination 1.2 × 10^6 Lux · hr), Day 10
[12] = high temperature, high humidity and accelerated experiments
[13] = Acceleration test (40° C./relative humidity 75%, open), Day 12
[14] = High humidity (room temperature/relative humidity 92.5%, open), Day 12
[15] = High temperature (60° C., open), Day 12
[16] = Light radiation (total illumination 1.2 × 10^6 Lux · hr), Day 12
[17] = high temperature, high humidity, light radiation and accelerated experiments
[18] = Acceleration test (40° C./relative humidity 75%, open), Day 30
[19] = High humidity (room temperature/relative humidity 92.5%, open), Day 30
[20] = High temperature (60° C., open), Day 30

O=C(O)[C@H]1C2CCC(CC2)[C@@H]1Nc1nc(-c2n[nH]c3ncc(F)cc23)nc(C2CC2)c1F (single isomer, unassigned) [crystal form A]
Appearance [1, 4]: Off-white solid | Appearance [1, 5]: Off-white solid | Content (%) [1, 5]: 98.36% | Total Impurities (%) [1, 5]: 1.64% | Appearance ([1]; Day 0 (initial)): Off-white solid | Content (%) ([1]; Day 0 (initial)): 98.51% | Total Impurities (%) ([1]; Day 0 (initial)): 1.49% | Appearance [1, 6]: Off-white solid | Appearance [1, 7]: Off-white solid | Content (%) [1, 7]: 98.25% | Total Impurities (%) [1, 7]: 1.75% | Appearance [1, 8]: Off-white solid | Appearance [1, 9]: Off-white solid | Content (%) [1, 9]: 98.25% | Total Impurities (%) [1, 9]: 1.75% | Appearance [1, 10]: Off-white solid | Appearance [1, 11]: Off-white solid | Content (%) [1, 11]: 96.89% | Total Impurities (%) [1, 11]: 3.11% | change of crystal form (XRPD detection) [1]: does not change | XPRD [1, 5]: Crystal form A | XPRD ([1]; Day 0 (initial)): Crystal form A | XPRD [1, 7]: Crystal form A | XPRD [1, 9]: Crystal form A | XPRD [1, 11]: Crystal form A | change in total impurity content [1, 12]: relatively small change

O=C(O)[C@H]1C2CCC(CC2)[C@@H]1Nc1nc(-c2n[nH]c3ncc(F)cc23)nc(C2CC2)c1F (single isomer, unassigned) [crystal form B]
Appearance ([1]; Day 0 (initial)): Off-white | Content (%) ([1]; Day 0 (initial)): 98.89% | Total Impurities (%) ([1]; Day 0 (initial)): 1.11% | Appearance [1, 6]: Off-white | Content (%) [1, 6]: 98.92% | Total Impurities (%) [1, 6]: 1.08% | Appearance [1, 7]: Off-white | Content (%) [1, 7]: 98.90% | Total Impurities (%) [1, 7]: 1.10% | Appearance [1, 8]: Off-white | Content (%) [1, 8]: 98.91% | Total Impurities (%) [1, 8]: 1.09% | Appearance [1, 9]: Off-white | Content (%) [1, 9]: 98.89% | Total Impurities (%) [1, 9]: 1.11% | Appearance [1, 10]: Off-white | Appearance [1, 11]: Off-white | Content (%) [1, 11]: 98.03% | Total Impurities (%) [1, 11]: 1.97% | change in total impurity ([1]; accelerated experiments): relatively small change | change of crystal form (XRPD detection) [1]: does not change | XPRD ([1]; Day 0 (initial)): Crystal form B | XPRD [1, 7]: Crystal form B | XPRD [1, 9]: Crystal form B | XPRD [1, 11]: Crystal form B | change in total impurity content ([1]; high temperature, high humidity): almost no change

O=C(O)[C@H]1C2CCC(CC2)[C@@H]1Nc1nc(-c2n[nH]c3ncc(F)cc23)nc(C2CC2)c1F [Compound 1]
Rate of Weight Loss (Day 9) ([2]; Day 9): 4.8% | Survival Rate (%) ([2]; observed to Day 14): 100% | EC50 ([3]; 120 h, MDCK cells, influenza virus A/Weiss/43 (H1N1), 5 days, CCK8 cell viability): 0.013 nM | effect in the experiment of inhibiting influenza virus replication at a cell level ([3]; result in words): positive effect

O=C(O)[C@H]1C2CCC(CC2)[C@@H]1Nc1nc(-c2n[nH]c3ncc(F)cc23)nc(C2CC2)c1F [crystal form D]
Appearance [1, 4]: Off-white solid | Appearance [1, 13]: Off-white solid | Total Impurities (%) [1, 13]: 3.5% | Appearance ([1]; Day 0 (initial)): Off-white solid | Total Impurities (%) ([1]; Day 0 (initial)): 3.3% | Appearance [1, 6]: Off-white solid | Appearance [1, 14]: Off-white solid | Total Impurities (%) [1, 14]: 3.4% | Appearance [1, 8]: Off-white solid | Appearance [1, 15]: Off-white solid | Total Impurities (%) [1, 15]: 3.3% | Appearance [1, 10]: Off-white solid | Appearance [1, 16]: Off-white solid | Total Impurities (%) [1, 16]: 3.4% | change of crystal form (XRPD detection) [1]: does not change | XPRD [1, 13]: Crystal form D | XPRD ([1]; Day 0 (initial)): Crystal form D | XPRD [1, 14]: Crystal form D | XPRD [1, 15]: Crystal form D | XPRD [1, 16]: Crystal form D | change in total impurity content [1, 17]: almost no change

O=C(O)[C@H]1C2CCC(CC2)[C@@H]1Nc1nc(-c2n[nH]c3ncc(F)cc23)nc(C2CC2)c1F [crystal form F]
Appearance [1, 4]: Off-white solid | Appearance [1, 13]: Off-white solid | Total Impurities (%) [1, 13]: 1.9% | Appearance ([1]; Day 0 (initial)): Off-white solid | Total Impurities (%) ([1]; Day 0 (initial)): 1.7% | Appearance [1, 6]: Off-white solid | Appearance [1, 14]: Off-white solid | Total Impurities (%) [1, 14]: 1.9% | Appearance [1, 8]: Off-white solid | Appearance [1, 15]: Off-white solid | Total Impurities (%) [1, 15]: 1.9% | Appearance [1, 10]: Off-white solid | Appearance [1, 16]: Off-white solid | Total Impurities (%) [1, 16]: 1.8% | change of crystal form (XRPD detection) [1]: does not change | XPRD [1, 13]: Crystal form F | XPRD ([1]; Day 0 (initial)): Crystal form F | XPRD [1, 14]: Crystal form F | XPRD [1, 15]: Crystal form F | XPRD [1, 16]: Crystal form F | change in total impurity content [1, 12]: almost no change

O=C(O)[C@H]1C2CCC(CC2)[C@@H]1Nc1nc(-c2n[nH]c3ncc(F)cc23)nc(C2CC2)c1F [crystal form G]
Appearance [1, 4]: Off-white solid | Appearance [1, 18]: Off-white solid | Total Impurities (%) [1, 18]: 0.35% | Appearance ([1]; Day 0 (initial)): Off-white solid | Total Impurities (%) ([1]; Day 0 (initial)): 0.35% | Appearance [1, 6]: Off-white solid | Appearance [1, 19]: Off-white solid | Total Impurities (%) [1, 19]: 0.33% | Appearance [1, 8]: Off-white solid | Appearance [1, 20]: Off-white solid | Total Impurities (%) [1, 20]: 0.42% | Appearance [1, 10]: Off-white solid | Appearance [1, 16]: Yellowish solid | Total Impurities (%) [1, 16]: 0.54% | change of crystal form (XRPD detection) [1]: does not change | XPRD [1, 18]: Crystal form G | XPRD ([1]; Day 0 (initial)): Crystal form G | XPRD [1, 19]: Crystal form G | XPRD [1, 20]: Crystal form G | XPRD [1, 16]: Crystal form G | change in total impurity content ([1]; high humidity and accelerated experiments): almost no change | change in total impurity content ([1]; high temperature): relatively small change

O=C(O)[C@H]1C2CCC(CC2)[C@@H]1Nc1nc(-c2n[nH]c3ncc(F)cc23)nc(C2CC2)c1F [crystal form H]
Appearance [1, 4]: Off-white solid | Appearance [1, 18]: Off-white solid | Total Impurities (%) [1, 18]: 2.0% | Appearance ([1]; Day 0 (initial)): Off-white solid | Total Impurities (%) ([1]; Day 0 (initial)): 1.8% | Appearance [1, 6]: Off-white solid | Appearance [1, 19]: Off-white solid | Total Impurities (%) [1, 19]: 1.9% | Appearance [1, 8]: Off-white solid | Appearance [1, 20]: Off-white solid | Total Impurities (%) [1, 20]: 2.0% | Appearance [1, 10]: Off-white solid | Appearance [1, 16]: Yellowish solid | Total Impurities (%) [1, 16]: 1.9% | change of crystal form (XRPD detection) [1]: does not change | XPRD [1, 18]: Crystal form H | XPRD ([1]; Day 0 (initial)): Crystal form H | XPRD [1, 19]: Crystal form H | XPRD [1, 20]: Crystal form H | XPRD [1, 16]: Crystal form H | change in total impurity content [1, 17]: almost no change
